Assays:
[1] = test system: splenic T cells of NOD mice; assay: T cell proliferation: immunogenicity and spontaneous recall responses to candidate NTTA peptides (Example 4); format: cell-based; conditions: peptide used as the immunizant; FIG. 4
Description: T-cell proliferation assays. Female NOD mice were injected i.p. at 8 weeks of age with 100 μg antigen, or control β-galactosidase, in 100 μl of 50% IFA. The mice were reinjected 2 weeks later. At 12 weeks of age, splenic T-cells were tested for proliferative responses to GAD65, hsp277, β-galactosidase and the HEL peptide, as previously described.
Transgenic animal models have shown that neoantigens which are expressed at low levels in peripheral tissues often have little impact on T cell education and elicit strong immune responses after immunization (4-8). Identifying NTTAs that were specifically expressed in the β cells at low levels was therefore preferred. The DNA sequence banks were screened for cDNA sequences isolated from mouse β cell subtraction libraries. Mouse cDNA sequences were selected from both known and unknown β cell cDNAs and from both β-cell specific and ubiquitous antigens, some of which appeared to be expressed only at low levels specifically in β cells. Other cDNAs that were expressed at higher levels in the β cells, or in other tissues were selected by Northern analysis for comparison purposes. From the open reading frames of the candidate cDNAs we synthesized a dozen peptides which contained a consensus NOD class II MHC binding motif (54, 55). We identified 4 peptides (sequences provided above) from 3 different mouse B cell proteins that were immunogenic in NOD mice (FIG. 4).
The remaining peptides tested were peptide 1, a 15mer from calbindin having the sequence EEFMKTWRKYDTDHS; • peptide 3, also a 15mer from calbindin having the sequence LKDLCEKNKQELDIN; • peptide 5, a 15mer from clone 38 in turn derived from a beta cell specific cDNA library (Neophytou, P. et al Diabetes, 45:127, 1996) having the sequence ILKMDHHCPWVNNCV; and • peptide 8 from islet amyloid polypeptide having the sequence GKRNAAGDPNRESLDFL.
In addition, using a set of overlapping GAD peptides, two GAD peptides have been identified which are immunogenic in NOD mice (GADp18 and GADp27; sequences provided under ANTIGENS, above) but which are ignored by their spontaneous autoimmune responses (data not shown). […] These conclusions can be used to advantage for the development of human NTTAs as immunotherapeutics for autoimmune disease, and other abnormal inflammatory immune responses.

[2] = test system: splenic T cells of NOD mice; assay: as above; format: cell-based; conditions: at any stage of NOD mouse development, no immunization
[3] = test system: diabetic NOD mice with transplanted syngeneic islets; assay: Transplantation of syngeneic islets into diabetic NOD mice (Example 2); format: in vivo; conditions: antigen i.p. in IFA to recipient diabetic NOD mice prior to transplantation; FIG. 1
Description: Transplantation of islets. Female NOD mice were monitored for the onset of IDDM, after which the mice were maintained on 1.0 to 1.5 units insulin (Humulin U, Lilly) per day. At the time of IDDM onset, mice were injected with either 100 μg of GAD65, hsp277, insulin B-chain or control β-galactosidase i.p. in 50% IFA. Ten days later, the mice were reinjected. Ten days after the second treatment, 3000 freshly isolated islets from newborn NOD mice were transplanted into the space beneath the kidney capsule, and Humulin administration was discontinued. The mice were reinjected every two weeks. Recurrence of diabetes is defined as two consecutive blood glucose levels of greater than 13 mmol/l.
Based on the ability of autoantigen treatment to inhibit disease in pre-diabetic NOD mice with (1) we tested whether this treatment could also protect transplanted syngeneic β cells from the established autoimmune responses in diabetic NOD mice. Islets were transplanted into diabetic NOD mice that had been treated with β-galactosidase. […] The results are shown in FIG. 1, wherein data are presented as time post-transplantation at which hyperglycemia recurred. These findings correlate with the extent to which each autoantigen was able to promote Th2 immunity in newly hyperglycemic animals (see Example 3, below).

[4] = test system: NOD mice; conditions: intraperitoneally in incomplete Freund's adjuvant early in the NOD mouse disease process (ref 1); cited from earlier work
[5] = test system: female NOD mice; assay: IDDM incidence in NOD mice treated at six weeks (Example 6); format: in vivo; conditions: 100 μg ip in IFA at six weeks, boosted once 10 days later; FIGS. 6 and 7
Description: IDDM incidence. At specified times, groups of 10 female NOD mice were injected i.p. with 50 μg antigen or control β-galactosidase in 100 μl of 50% IFA. Another control group received 100 μl of 50% IFA alone. Because there may be a requirement for continual antigen presentation, the mice were reinjected every 6 weeks until 40 weeks of age. Urine glucose levels were monitored weekly for diabetes by Tes-tape (Lilly, Indianapolis, Ind.). After we observed abnormal glucose in the urine, blood glucose levels were monitored twice weekly. A recording of two consecutive blood glucose levels of greater than 13 mmol/l was considered as IDDM onset.
Groups of six weeks old female NOD mice were treated with either the control MSA (MSA 560-574) peptide, or a peptide containing a βCAA target determinant (GADp35, GADp34, HSP 277 or insulin B-chain), or a NTTA peptide #2, 4, 6 or 7 (in each case 100 μg ip in IFA)). The mice were boosted once 10 days later. All mouse groups were injected concurrently and housed in the same SPF room. […] An average of 70% of the mice treated with a βCAA target determinant developed IDDM by 40 weeks in age. Two consecutive blood glucose levels of […] was considered disease onset. N=10 for each group.
An average of 40% of the NOD mice treated with different NTTAs developed IDDM by 40 weeks in age. […]

[6] = test system: antigen-specific T cells within islet infiltrates; assay: ELISPOT of single antigen-specific T cells from pancreatic islet infiltrates (Example 11); format: cell-based, NOD mice
Description: (§1) ELISPOT analysis. At a specified time, mice received a single i.p. injection of 100 μg β-galactosidase or GAD65 or other specified antigen in 50% IFA. Fourteen days later, splenic T-cells were isolated and the frequency of β-galactosidase and GAD65-specific T-cells secreting IL-4, IL-5 and IFN-γ was determined by using the ELISPOT technique as described (Forsthuber, T., et al., Science, 271:1728, 1996), with the exception that the treating antigen and β-galactosidase (100 μg/ml) were used as antigens, and 11B11 together with biotinylated BVD6-24G2 (PharMingen, San Diego, Calif.) was used for capture and detection of IL-4. The resulting spots were counted manually.
Monocytes were isolated from islets of 10-week old female NOD mice. 1000, 100 or 10 monocytes were mixed with 1 million irradiated splenic T cells and tested for IFNγ and IL-5 responses to B cell autoantigens, as well as control antigens, by ELISPOT.

[7] = test system: splenic T cells of treated NOD mice; assay: ELISPOT of Th1/Th2 responses after neonatal autoantigen treatment (Example 8); format: cell-based; conditions: treated neonatally 100 μg i.p. in IFA, tested at 4 weeks in age; FIG. 10
Description: as §1
The data are represented as the mean number of spot forming colonies per million splenic T cells above background. The variation within, each group was <15%. Experimental and control mice were tested simultaneously (in triplicate) in two separate experiments (n=5/group).

[8] = test system: irradiated young NOD mice receiving T cells from diabetic NOD mice; assay: Adoptive transfer of IDDM (Example 5); format: in vivo; conditions: cells from treated mice co-transferred with T cells from diabetic NOD mice
Description: Adoptive transfer of diabetes. At a specified time, NOD mice were injected i.p. with 100 μg GAD65 (or other specified antigen) or control β-galactosidase in 100 μl of 50% IFA and reinjected at 14 weeks of age. Five weeks later, single-cell suspensions of splenic mononuclear cells were prepared from each group, as well as from unmanipulated diabetic NOD mice. Ten million splenic mononuclear cells from the unmanipulated diabetic mice were mixed with an equal number of splenic mononuclear cells from GAD65 β-galactosidase-treated mice and injected intravenously into 5-week-old female NOD mice that had received 500 rad-γ-irradiation. Another control group received […] splenic mononuclear cells obtained only from unmanipulated diabetic mice.
Splenic T cells from NTTA peptide treated mice were co-transferred with T cells from diabetic NOD mice into irradiated young NOD mice. All of the mice which received cells from mice treated with a control immunogenic mouse serum albumin peptide (MSA 560-574) developed IDDM within 5 weeks. […] Thus, NTTAs are capable of inducing adoptively transferable regulatory responses which can down-regulate pathogenic T cells.

[9] = test system: T cell clones from immunized NOD mice; assay: Cytokine secretion of NTTA- and GADp35-reactive T cell clones (Example 9); format: cell-based; conditions: ELISPOT and antigen-stimulated culture supernatants
Description: NOD mice were immunized with a NTTA peptide or GADp35 in incomplete Freund's adjuvant (IFA). Two weeks later lymph node and splenic T cells were cultured with antigen, IL-2 and IL-4 together with irradiated NOD splenic cells and T cell clones were generated by limiting dilution. A NTTA 7 and a GADp35-reactive clone were characterized by ELISPOT and analysis of antigen-stimulated culture supernatants. Both clones secreted IL-4, and no IFN-γ in response to the corresponding antigen. Thus, these T cell clones appear to be Th2-type.

[10] = 100 islet monocytes mixed with 1 million irradiated splenic T cells
[11] = 1,000 islet monocytes mixed with 1 million irradiated splenic T cells, 10-week old female NOD mice

EEFMKTWRKYDTDHS [peptide 1]
immunogenicity in NOD mice (proliferative T cell response after immunization) [1]: did not contain determinants

ELKNFLKDLLEKANKTVDDT (homo sapiens) [Peptide 2]
spontaneous proliferative splenic T cell recall responses [2]: did not detect | immunogenicity in NOD mice (proliferative T cell response after immunization) [1]: immunogenic

GKRNAAGDPNRESLDFL [peptide 8, from islet amyloid polypeptide]
immunogenicity in NOD mice (proliferative T cell response after immunization) [1]: did not contain determinants

ILKMDHHCPWVNNCV [peptide 5, 15mer from clone 38]
immunogenicity in NOD mice (proliferative T cell response after immunization) [1]: did not contain determinants

Insulin B-chain [reference compound]
syngeneic islet graft survival (recurrence of hyperglycemia) [3]: lacked any protective effect | protection from IDDM [4]: highly protective | protection from disease / disease incidence [5]: non-significant trend toward protection | IFNγ responses, number of T cells [6, 10]: 6 | IFNγ responses, number of T cells [6, 11]: 50 | Th2 and Th1 responses to the injected autoantigen [7]: both Th2 and Th1 responses

LIKPDRCHHCSVCDKC (homo sapiens) [Peptide 4]
spontaneous proliferative splenic T cell recall responses [2]: did not detect | immunogenicity in NOD mice (proliferative T cell response after immunization) [1]: immunogenic

LKDLCEKNKQELDIN [peptide 3]
immunogenicity in NOD mice (proliferative T cell response after immunization) [1]: did not contain determinants

MSA 560-574: control immunogenic mouse serum albumin peptide 560-574 (KPKATAEQLKTVMDD)
time by which all recipient mice developed IDDM [8]: ≤ 5 weeks

NHLRATPVRSGSNPQ (homo sapiens) [Peptide 6]
spontaneous proliferative splenic T cell recall responses [2]: did not detect | immunogenicity in NOD mice (proliferative T cell response after immunization) [1]: immunogenic

PEVKEKGMAAVPRLIAFTSE (homo sapiens) [GADp18]
spontaneous proliferative splenic T cell recall responses [2]: ignored | immunogenicity in NOD mice (proliferative T cell response after immunization) [1]: immunogenic

PLQCSALLVREEGLMQSCNQ (homo sapiens) [GADp27]
spontaneous proliferative splenic T cell recall responses [2]: ignored | immunogenicity in NOD mice (proliferative T cell response after immunization) [1]: immunogenic

TQRLANFLVRSSNNL (homo sapiens) [Peptide 7]
IFN-γ secretion of reactive T cell clone in response to the corresponding antigen [9]: no | IL-4 secretion of reactive T cell clone in response to the corresponding antigen [9]: secreted | spontaneous proliferative splenic T cell recall responses [2]: did not detect | immunogenicity in NOD mice (proliferative T cell response after immunization) [1]: immunogenic

B1: GAD: Mouse GAD65, glutamic acid decarboxylase, β cell autoantigen (protein, UniProt P48320 1-585, looked up)
Glutamate decarboxylase 2: MASPGSGFWSFGSEDGSADPENPGTARAWCQVAQKFTGGIGNKLCALLYGDSGKPAEGGGSVTSRAATGKVACTCDQKPCNCPKGDVNYAFLHATDLLPACDGERPTLAFLQDVMNILLQYVVKSFDRSTKVIDFHYPNELLQEYNWELADQPQNLEEILTHCQTTLKYAIKTGHPRYFNQLSTGLDMVGLAADWLTSTANTNMFTYEIAPVFVLLEYVTLKKMREIIGWPGGSGDGIFSPGGAISNMYAMLIARYKMFPEVKEKGMAAVPRLIAFTSEHSHFSLKKGAAALGIGTDSVILIKCDERGKMIPSDLERRILEVKQKGFVPFLVSATAGTTVYGAFDPLLAVADICKKYKIWMHVDAAWGGGLLMSRKHKWKLSGVERANSVTWNPHKMMGVPLQCSALLVREEGLMQSCNQMHASYLFQQDKHYDLSYDTGDKALQCGRHVDVFKLWLMWRAKGTTGFEAHIDKCLELAEYLYTIIKNREGYEMVFDGKPQHTNVCFWFVPPSLRTLEDNEERMSRLSKVAPVIKARMMEYGTTMVSYQPLGDKVNFFRMVISNPAATHQDIDFLIEEIERLGQDL
syngeneic islet graft survival (recurrence of hyperglycemia) [3]: greatly extended syngeneic islet graft survival | protection from IDDM [4]: highly protective | IFNγ responses, number of T cells [6, 10]: 15 | IFNγ responses, number of T cells [6, 11]: 123 | Th2 and Th1 responses to the injected autoantigen [7]: both Th2 and Th1 responses
